Measurements taken from patent publication US10143700B2, “Nanoparticle formulations for delivering multiple therapeutic agents” (Amrita Vishwa Vidyapeetham University, priority 2013, dated 2018).

Key:
[1] = tested on: TfR; assay: Transferrin receptor expression in HepG2 cells by flow cytometry; assay type: cell-based
Protocol: Transferrin receptor expression and cellular uptake: In the next step, the expression of TfR in HepG2 cells was studied using flow cytometry. […] After creating an iron deficient microenvironment by treating the cells with 100 μM DFO, the number of the TfR-expressing cells increased to ˜89% (FIG. 13C). […] Following that, intracellular uptake of the core-shell nanoparticles in cancer cells was investigated. […] After creating iron-deficient microenvironment, the uptake was further increased to ˜94% (FIG. 13G) due to the increase in the number of TfRexpressing cells. Upon addition of iron-loaded transferrin, the uptake was dropped to ˜69% due to the saturation of TfR expression in these cells (FIG. 13H).

[2] = tested on: HepG2 cells; assay: Annexin V/PI apoptosis assay (confocal imaging and flow cytometry); assay type: cell-based; settings: for apoptosis (apoptotic cells by flow cytometry): 5 μM sorafenib and/or 0.5 μM Dox
Protocol: Apoptosis studies: In the next step, the mode of cell death using Annexin V/PI apoptosis assay was investigated. […] The apoptotic cells using flow cytometry were also quantified. […] Even after combining both the drugs (5 μM sorafenib (5S) with 0.5 μM Dox (0.5D)), a maximum of only ˜60% apoptosis was registered (FIG. 15D). In contrast, as separate nanoformulations, the nano-shell (containing 5 μM sorafenib, (5AST)) (FIG. 15F), and the nano-core (containing 0.5 μM Dox, (0.5PD)) (FIG. 15G) have shown slight improvement in apoptosis (˜39% by shell, and ˜61% by core). After combining the two in a core-shell targeted fashion, excellent apoptosis was registered in ˜91% cells (FIG. 15H).

CC(=O)N(O)CCCCCNC(=O)CCC(=O)N(O)CCCCCNC(=O)CCC(=O)N(O)CCCCCN [DFO]
number of TfR-expressing cells ([1]; HepG2 cells treated with 100 μM DFO (iron deficient microenvironment), ~76% before iron chelation): ~89% | viability of TfR overexpressing cells ([2]; pretreatment with 100 μM DFO, FIG. 15E): did not affect the viability

COc1cccc2c1C(=O)c1c(O)c3c(c(O)c1C2=O)C[C@@](O)(C(=O)CO)C[C@@H]3O[C@H]1C[C@H](N)[C@H](O)[C@H](C)O1 [Dox, doxorubicin]
apoptosis (apoptotic cells by flow cytometry) [2]: ~53%

CNC(=O)c1cc(Oc2ccc(NC(=O)Nc3ccc(Cl)c(C(F)(F)F)c3)cc2)ccn1 [sorafenib]
apoptosis (apoptotic cells by flow cytometry) [2]: ~38%

holotransferrin: iron-loaded transferrin
number of TfR-expressing cells ([1]; HepG2 cells, upon addition of iron-loaded transferrin (holotransferrin)): ~42%
